Results as given in the NIST ThermoML archive (doi:10.1021/je7005133).

c1cc2c3c(cccc3c1)CC2 [acenaphthene]
Crystal
Conditions | vapor or sublimation pressure [kPa]
297.6 K | 0.00029
299.7 K | 0.000362
300.5 K | 0.000413
301.6 K | 0.00044
302.8 K | 0.000508
306.1 K | 0.000693
310.7 K | 0.00112
315.6 K | 0.0018

C1=Cc2cccc3cccc1c23 [acenaphthylene]
Crystal
Conditions | vapor or sublimation pressure [kPa]
297.4 K | 0.000488
297.6 K | 0.000531
304.6 K | 0.00105
304.7 K | 0.00108
306.7 K | 0.00114
311.9 K | 0.00182
314.8 K | 0.00345
318.5 K | 0.00345
318.6 K | 0.00347
319.7 K | 0.00414

c1ccc2cc3ccccc3cc2c1 [anthracene]
Crystal
Conditions | vapor or sublimation pressure [kPa]
322.2 K | 1.6e-05
327 K | 2.6e-05
329.1 K | 3.33e-05
333.4 K | 4.91e-05
336.3 K | 7.2e-05
338.7 K | 9.43e-05
340.4 K | 0.00011
341.2 K | 0.000119
342.3 K | 0.000131
343.6 K | 0.000141
344.2 K | 0.000164
346.4 K | 0.000192
348.2 K | 0.00026

c1ccc2c(c1)cc1ccc3cccc4ccc2c1c34 [benzo[a]pyrene]
Crystal
Conditions | vapor or sublimation pressure [kPa]
392.3 K | 7.31e-05
393.5 K | 7.96e-05
397.8 K | 0.000129
400.8 K | 0.000167
402.3 K | 0.00018
405.2 K | 0.000217
406.6 K | 0.000273
411.5 K | 0.000394
411.8 K | 0.000418
415.1 K | 0.000494
415.5 K | 0.000537
419 K | 0.000697
419.7 K | 0.000733
421.2 K | 0.000785
423.8 K | 0.00098
423.9 K | 0.00102

c1ccc2c(c1)ccc1c3ccccc3ccc21 [chrysene]
Crystal 2
Conditions | vapor or sublimation pressure [kPa]
372.4 K | 1.74e-05
380.7 K | 3.72e-05
385.2 K | 5.37e-05
389.2 K | 7.61e-05
389.4 K | 7.5e-05
393.6 K | 0.000103
394.2 K | 0.000136
396.1 K | 0.000148
398.1 K | 0.000168
398.2 K | 0.000158
400 K | 0.000202
400.4 K | 0.000212
402.8 K | 0.000263
403 K | 0.000254
404.8 K | 0.000277
404.9 K | 0.000292
405.1 K | 0.000306
406.8 K | 0.000336
408.6 K | 0.000379

c1ccc2c(c1)-c1cccc3cccc-2c13 [fluoranthene]
Crystal
Conditions | vapor or sublimation pressure [kPa]
326.8 K | 3.96e-05
326.9 K | 4.11e-05
331 K | 6.16e-05
331.8 K | 6.32e-05
336.7 K | 0.000117
338.7 K | 0.000129
338.8 K | 0.000131
338.9 K | 0.000144
340.2 K | 0.000154
342.5 K | 0.000206
343.9 K | 0.000248
345.3 K | 0.000258
348 K | 0.00033
348.5 K | 0.000341
350.9 K | 0.000463
354.1 K | 0.00058
359.2 K | 0.00105

c1ccc2c(c1)Cc1ccccc1-2 [fluorene]
Crystal
Conditions | vapor or sublimation pressure [kPa]
298 K | 6.61e-05
298.1 K | 6.52e-05
299.8 K | 8.4e-05
301.4 K | 9.88e-05
304.3 K | 0.000141
306.6 K | 0.000178
306.9 K | 0.000195
308.1 K | 0.000218
309.8 K | 0.000261
311.2 K | 0.000301
314.3 K | 0.000414
316 K | 0.00046
316.5 K | 0.000531
317.3 K | 0.000581
317.6 K | 0.000613
320.3 K | 0.00076
324.4 K | 0.00127

c1cc2cccc3c4cccc5cccc(c(c1)c23)c54 [perylene]
Crystal
Conditions | vapor or sublimation pressure [kPa]
390 K | 1.37e-05
390.5 K | 1.47e-05
391.2 K | 1.49e-05
393.7 K | 2.15e-05
397.7 K | 3.15e-05
398.3 K | 3.03e-05
402.2 K | 4.58e-05
402.8 K | 4.76e-05
403.7 K | 5.19e-05
405.7 K | 6.67e-05
406.6 K | 7.2e-05
406.8 K | 7.03e-05
410.5 K | 0.0001
411.3 K | 0.000102
412.7 K | 0.000132
413.4 K | 0.000142
414.4 K | 0.000148
418.4 K | 0.000196
428.6 K | 0.000443
432.4 K | 0.000606

c1cc2ccc3cccc4ccc(c1)c2c34 [pyrene]
Crystal
Conditions | vapor or sublimation pressure [kPa]
322 K | 8.95e-06
337.1 K | 5.31e-05
342.1 K | 9.43e-05
347.1 K | 0.000147
352.3 K | 0.000227
356.8 K | 0.000339
362.1 K | 0.000599
372 K | 0.0013
381.4 K | 0.00281

c1ccc2c(c1)c1ccccc1c1ccccc21 [triphenylene]
Crystal
Conditions | vapor or sublimation pressure [kPa]
368.4 K | 1.7e-05
377.4 K | 4.48e-05
377.7 K | 4.51e-05
378 K | 4.64e-05
386.7 K | 0.000116
390.7 K | 0.000178
394.9 K | 0.000264
395 K | 0.000258
399.1 K | 0.000375
